Laboratory results reported in patent publication US20240391931A1 (Bristol-Myers Squibb Company, priority 2021, published 2024).

Assays:
HER2YVMA = HER2YVMA (Homo sapiens, UniProt P04626, INS775YVMA); test: HER2 signaling (pHER2) in BEAS2B-HER2YVMA cells; format: cell-based; parameters: expressed in transfected cells; host or cells: HEK293 (pool), Ba/F3 (clones), BEAS2B (clones); lentiviral vector pCDH-CMV-MCS-EF1-Neo; settings: read-out: BEAS2B YVMA pHER2 EC50
Procedure: Cell culture, plasmid cloning, and lentiviral transduction were carried out according to standard procedures. The Human HER2 cDNA construct in pCMV6-Entry for the HER2 wildtype (WT) expression was obtained from Origene. The HER2 cDNA including the 12-nucleotide insertion corresponding to YVMA insertion (HER2YVMA) was codon optimized, synthesized and cloned by GenScript (Piscataway, NJ) in pcDNA3.1. The lentiviral constructs expressing HER2YVMA and HER2 WT were sub-cloned using PCR at System Biosciences (SBI, Mountainview, CA) into lentiviral vectors pCDH-CMV-MCS-EF1-Neo and lentiviral particles were generated.
Engineered lines expressing HER2YVMA and HER2 WT were prepared in HEK293 (human embryonic kidney cells), Ba/F3 (Interleukin 3 (IL3)-dependent murine pro B cell line), and BEAS2B (primary immortalized human bronchial epithelial cell line). […]
HER2 signaling was assessed in BT474 and N87 cell lines which endogenously overexpress the HER2 wildtype (WT) protein, in NCI-H1781 cells which endogenously expresses a HER2 mutant protein containing a VC insertion in the kinase domain (HER2VC or G776delinsVC), and in engineered cell lines transduced to express the Her2 mutant protein containing the YVMA insertion (Hek293-HER2YVMA and BEAS2B-HER2YVMA). […]
HER2 signaling was evaluated using phospho (Tyr1248)/total ErbB2 whole cell lysate MSD plates (Meso-Scale Discovery, Gaithersburg, MD). […]

HER2 = molecular target: T1, HER2 (Homo sapiens, UniProt P04626); test: HER2 occupancy assay in BT474 cells; format: cell-based; settings: concentration at which 50% of HER2 is irreversible bound, read-out: BT474 HER2 Occ
T1 construct: BT474 and N87 cell lines which endogenously overexpress the HER2 wildtype (WT) protein; endogenous in cells; host or cells: BT474, N87
Procedure: In order to assess free HER2 protein, a biotinylated probe was utilized. BT474, N87, and Ba/F3-HER2YVMA cells were treated with test compound as described for HER2 signaling. After compound treatment, cells were washed three times with cold phosphate buffer saline (PBS, Life Technologies, Carlsbad, CA), and lysed in modified occupancy lysis buffer prepared with an irreversible biotinylated tool compound (1 μM) in 25 mM Tris pH 7.5, 150 mM NaCl, 1% Triton, and supplemented with cOmplete, EDTA-free Protease inhibitor cocktail (Roche), Phosphatase Inhibitor Cocktails 2 and 3 (Sigma-Aldrich), and 1 mM PMSF (Sigma-Aldrich).
To determine % occupancy, lysates were loaded into duplicate plates of the phospho (Tyr1248)/total ErbB2 whole cell lysate MSD kit (Meso-Scale Discovery) and incubated overnight. Plates were washed and incubation with either HER2-sulfoTag (1:50, Meso Scale Discovery) or Strep-Sulfo Tag (1:1000, Meso Scale Discovery), for detection of […]. A standard curve of untreated cells in serial dilution was included in each plate to independently fit streptavidin (Free HER2) and total HER2 MSD signals; non-specific signal (BSA control spots) was subtracted from each well. Free HER2 was then normalized by total HER2 for each sample. The results are reported as % DMSO control. The normalized data was fitted using a sigmoidal curve analysis program (Graph Pad Prism version 6) with variable Hill slope to determine EC50 values. The results are provided in Table 4, under columns titled “BT474-HER2 Occ”, “N87-HER2 Occ”, and “Ba/F3 YVMA-HER2 Occ”. HER2 Occ is the concentration of test compound at which 50% of HER2 is irreversible bound.

T1 sequence (P04626 23-1255): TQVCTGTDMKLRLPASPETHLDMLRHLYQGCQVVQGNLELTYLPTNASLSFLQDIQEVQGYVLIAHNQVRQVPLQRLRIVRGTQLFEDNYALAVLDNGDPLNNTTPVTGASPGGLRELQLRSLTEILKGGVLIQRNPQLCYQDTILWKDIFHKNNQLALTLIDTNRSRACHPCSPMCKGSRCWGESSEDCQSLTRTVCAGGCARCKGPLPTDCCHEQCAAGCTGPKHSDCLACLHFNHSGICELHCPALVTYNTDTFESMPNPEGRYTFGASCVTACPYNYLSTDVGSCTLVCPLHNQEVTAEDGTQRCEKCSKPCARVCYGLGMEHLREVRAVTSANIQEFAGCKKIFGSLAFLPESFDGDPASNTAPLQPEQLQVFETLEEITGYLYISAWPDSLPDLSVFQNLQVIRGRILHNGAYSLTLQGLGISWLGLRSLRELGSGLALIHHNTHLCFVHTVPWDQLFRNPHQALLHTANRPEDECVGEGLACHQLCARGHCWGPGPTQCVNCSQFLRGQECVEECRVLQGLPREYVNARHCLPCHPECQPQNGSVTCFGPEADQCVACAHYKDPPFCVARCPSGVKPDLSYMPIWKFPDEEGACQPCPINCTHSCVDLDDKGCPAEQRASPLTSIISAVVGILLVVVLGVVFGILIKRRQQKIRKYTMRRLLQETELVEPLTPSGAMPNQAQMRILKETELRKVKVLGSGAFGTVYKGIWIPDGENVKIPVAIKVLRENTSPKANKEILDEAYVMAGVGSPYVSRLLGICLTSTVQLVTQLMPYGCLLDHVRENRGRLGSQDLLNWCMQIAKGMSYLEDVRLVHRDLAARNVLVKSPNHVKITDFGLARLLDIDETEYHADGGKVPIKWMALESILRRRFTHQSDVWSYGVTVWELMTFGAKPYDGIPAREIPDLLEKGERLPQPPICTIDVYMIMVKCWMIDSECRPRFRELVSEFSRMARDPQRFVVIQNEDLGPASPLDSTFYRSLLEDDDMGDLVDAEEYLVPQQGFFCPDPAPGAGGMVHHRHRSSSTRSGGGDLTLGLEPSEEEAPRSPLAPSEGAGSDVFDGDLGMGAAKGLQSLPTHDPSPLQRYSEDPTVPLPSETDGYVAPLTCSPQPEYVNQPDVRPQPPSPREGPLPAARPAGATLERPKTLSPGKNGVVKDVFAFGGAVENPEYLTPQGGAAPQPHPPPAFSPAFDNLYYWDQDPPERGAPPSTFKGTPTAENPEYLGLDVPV
Sequence of HER2YVMA (P04626 with tags, fused parts or gaps INS775YVMA): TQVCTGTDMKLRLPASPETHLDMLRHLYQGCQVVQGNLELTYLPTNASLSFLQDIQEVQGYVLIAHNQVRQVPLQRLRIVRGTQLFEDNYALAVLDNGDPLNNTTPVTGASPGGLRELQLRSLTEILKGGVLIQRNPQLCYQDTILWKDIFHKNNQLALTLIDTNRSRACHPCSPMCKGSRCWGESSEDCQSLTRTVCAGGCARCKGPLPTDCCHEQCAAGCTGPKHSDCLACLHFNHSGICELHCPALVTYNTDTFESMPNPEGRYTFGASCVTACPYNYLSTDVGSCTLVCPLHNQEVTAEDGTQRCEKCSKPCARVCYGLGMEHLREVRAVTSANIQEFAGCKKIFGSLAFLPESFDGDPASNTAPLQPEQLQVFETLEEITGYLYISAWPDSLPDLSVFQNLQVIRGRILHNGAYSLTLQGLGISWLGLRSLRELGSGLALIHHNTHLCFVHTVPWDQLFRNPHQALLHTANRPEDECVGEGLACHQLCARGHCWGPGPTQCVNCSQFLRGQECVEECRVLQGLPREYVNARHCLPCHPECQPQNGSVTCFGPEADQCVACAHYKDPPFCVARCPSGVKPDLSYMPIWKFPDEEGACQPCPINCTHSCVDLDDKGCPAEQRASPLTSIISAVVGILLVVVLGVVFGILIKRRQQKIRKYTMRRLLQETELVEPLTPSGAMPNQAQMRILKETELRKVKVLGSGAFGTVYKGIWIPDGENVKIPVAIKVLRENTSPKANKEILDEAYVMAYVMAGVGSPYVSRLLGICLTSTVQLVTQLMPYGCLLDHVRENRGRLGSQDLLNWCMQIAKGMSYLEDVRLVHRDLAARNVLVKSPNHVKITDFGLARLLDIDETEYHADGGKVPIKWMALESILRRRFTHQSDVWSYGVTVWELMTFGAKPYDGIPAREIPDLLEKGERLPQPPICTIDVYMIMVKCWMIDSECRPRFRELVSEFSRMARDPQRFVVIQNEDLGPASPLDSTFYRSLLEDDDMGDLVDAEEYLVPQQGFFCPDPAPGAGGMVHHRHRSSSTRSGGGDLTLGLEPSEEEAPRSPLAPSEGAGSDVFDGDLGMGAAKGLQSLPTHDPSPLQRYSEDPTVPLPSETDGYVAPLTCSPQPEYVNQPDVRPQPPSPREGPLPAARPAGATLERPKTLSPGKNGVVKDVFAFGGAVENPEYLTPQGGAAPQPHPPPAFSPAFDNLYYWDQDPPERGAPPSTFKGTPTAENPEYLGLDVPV

SMILES | EC50 (HER2YVMA) [nM] | EC50 (HER2) [nM]
Cc1ccc(Oc2ccc(Nc3ncnc4sc5c(c34)CCN(C(=O)/C=C/CN(C)C)C5)cc2C)cn1 [Compound 8, (E)-4-(Dimethylamino)-1-(4-((3-methyl-4-((6-methylpyridin-3-yl)oxy)phenyl)amino)-5,6-dihydropyrido[4′,3′:4,5]thieno[2,3-d]pyrimidin-7(8H)-yl)but-2-en-1-one] | < 100 | < 100
Cc1cc(Nc2ncnc3sc4c(c23)CCN(C(=O)/C=C/CN2CCOCC2)C4)ccc1Oc1ccc2ncnn2c1 [Compound 12] | – | < 100
